Activity calls are given as the source filed them. The calls are words filed in the database; no cut-off is given here.
Columns and labels:
ASPC1 = assay: Antiproliferative activity against human ASPC1 cells harbouring KRAS G12D mutant assessed as reduction in cell viability incubated for 72 hrs; assay type: functional, cell-based
SW-620 = assay: Antiproliferative activity against human SW620 cells harbouring KRAS G12V mutant assessed as inhibition of cell growth incubated for 72 hrs by Luminescence based assay; assay type: functional; conditions: SW-620, 72 h
GTPase KRas [1] = target: T1, GTPase KRas (Homo sapiens, UniProt P01116, G12D); assay: Inhibition of KRas G12D mutant in human ASPC1 cells assessed as inhibition of ERK phosphorylation at Thr202/Tyr204 residues incubated for 3 hrs by Western blot analysis; assay type: cell-based
GTPase KRas [2] = target: T1, GTPase KRas; assay: Inhibition of KRas G12D mutant in human SW620 cells assessed as inhibition of ERK phosphorylation at Thr202/Tyr204 residues incubated for 3 hrs by Western blot analysis; assay type: cell-based
HT-29 = assay: Antiproliferative activity against human HT-29 cells harbouring wild-type KRAS assessed as cell growth inhibition by CellTiter-Glo assay; assay type: functional, cell-based
[3] = test system: GTPase KRas (Homo sapiens), P01116 [G12D]; assay: Inhibition of KRas G12D mutant in human ASPC1 cells assessed as assessed as downregulation of DUSP4 at 0.05 to 300 nM incubated for 3 hrs by Western blot analysis; assay type: cell-based; conditions: dose 0.05-300 nM

**Q.** Which results are given for `N#Cc1c(N)sc2c(F)ccc(-c3c(Cl)c4c5c(nc(OC[C@@]67CCCN6C[C@H](F)C7)nc5c3F)N3CCCCC[C@@H]3CO4)c12`?
**A.** IC50 (ASPC1; Homo sapiens, ASPC1, 72 h): 3250 nM; IC50 (SW-620): 347 nM

**Q.** With `Nc1nc2c(-c3c(Cl)c4c5c(nc(OC[C@@]67CCCN6C[C@H](F)C7)nc5c3F)N3CCCCCC3CO4)ccc(F)c2s1` (stereo not given in full) as the compound, how does the IC50 (ASPC1; Homo sapiens, ASPC1, 72 h) read?
**A.** Its IC50 is 1150 nM.

**Q.** What about the IC50 (SW-620) of the same compound?
**A.** The IC50 was 151 nM.

**Q.** With `Nc1nc2c(-c3c(Cl)c4c5c(nc(OC[C@@]67CCCN6C[C@H](F)C7)nc5c3F)N3CCCOC[C@H]3CO4)ccc(F)c2s1` as the compound, how does the IC50 (ASPC1; Homo sapiens, ASPC1, 72 h) read?
**A.** Its IC50 is 1920 nM.

**Q.** What about the IC50 (SW-620) of the same compound?
**A.** Its IC50 is 22.6 nM.

**Q.** Which IC50 (ASPC1; Homo sapiens, ASPC1, 72 h) does the source give for `Nc1nc2c(-c3c(Cl)cc4c(N5CCCOCC5)nc(OC[C@@]56CCCN5C[C@H](F)C6)nc4c3F)ccc(F)c2s1` here?
**A.** The IC50 was 8240 nM.

**Q.** And the IC50 (SW-620)?
**A.** Its IC50 is 208 nM.

**Q.** Which IC50 (ASPC1; Homo sapiens, ASPC1, 72 h) does the source give for `N#Cc1c(N)sc2c(F)ccc(-c3c(Cl)c4c5c(nc(OC[C@@]67CCCN6C[C@H](F)C7)nc5c3F)N3CCCCC[C@H]3CO4)c12` here?
**A.** The IC50 was 354 nM.

**Q.** What about the IC50 (SW-620) of the same compound?
**A.** The IC50 was 2.6 nM.

**Q.** For `N#Cc1c(N)sc2c(F)ccc(-c3c(Cl)c4c5c(nc(OC[C@@]67CCCN6C[C@H](F)C7)nc5c3F)N3CCCOC[C@H]3CO4)c12` (single isomer, unassigned; atropisomer 1), which IC50 (ASPC1; aspc1) is on record?
**A.** The IC50 was 8780 nM.

**Q.** How did the IC50 (ASPC1; aspc1) turn out when `N#Cc1c(N)sc2c(F)ccc(-c3c(Cl)c4c5c(nc(OC[C@@]67CCCN6C[C@H](F)C7)nc5c3F)N3CCCCCC3CO4)c12` (single isomer, unassigned; atropisomer 1) was run?
**A.** The IC50 was 4000 nM.

**Q.** For `N#Cc1c(N)sc2c(F)ccc(-c3c(Cl)c4c5c(nc(OC[C@@]67CCCN6C[C@H](F)C7)nc5c3F)N3CCCOC[C@H]3CO4)c12` (single isomer, unassigned; atropisomer 2) [listing 1 of 2 here], which IC50 (ASPC1; aspc1) is on record?
**A.** Its IC50 is 378 nM.

**Q.** And the IC50 (SW-620)?
**A.** Its IC50 is 0.6 nM.

**Q.** And the IC50 (GTPase KRas [1])?
**A.** The IC50 was 0.6 nM.

**Q.** What about the IC50 (GTPase KRas [2]) of the same compound?
**A.** Its IC50 is 1 nM.

**Q.** And the IC50 (HT-29)?
**A.** Its IC50 is 3230 nM.

**Q.** For `N#Cc1c(N)sc2c(F)ccc(-c3c(Cl)c4c5c(nc(OC[C@@]67CCCN6C[C@H](F)C7)nc5c3F)N3CCCCCC3CO4)c12` (single isomer, unassigned; atropisomer 2), which IC50 (ASPC1; aspc1) is on record?
**A.** Its IC50 is 713 nM.

**Q.** And the IC50 (SW-620)?
**A.** The IC50 was 4.4 nM.

**Q.** With `N#Cc1c(N)sc2c(F)ccc(-c3c(Cl)c4c5c(nc(OC[C@@]67CCCN6C[C@H](F)C7)nc5c3F)N3CCCOC[C@H]3CO4)c12` (single isomer, unassigned; atropisomer 2) [listing 2 of 2 here] as the compound, how does the Activity [3] read?
**A.** The Activity was “Active”.
